Source: patent US9771369B2, “Compounds and methods for kinase modulation, and indications therefor” (Plexxikon Inc., priority 2014, dated 2017)

Biological target: c-Kit kinase (Homo sapiens (Human), UniProt P10721)
Experiment: c-Kit biochemical assay (AlphaScreen kinase activity)
Method: Assays for biochemical cell-based activity of c-kit kinase are known in the art, for example, as described in U.S. Pat. Nos. 7,498,342 and 7,846,941, the disclosures of which are hereby incorporated by reference as it relates to such assays. The c-kit (or kinase domain thereof) is an active kinase in AlphaScreen. IC50 values are determined with respect to inhibition of c-Kit kinase activity, where inhibition of phosphorylation of a peptide substrate is measured as a function of compound concentration. Compounds to be tested were dissolved in DMSO to a concentration of 30 mM. These were diluted 30 μl into 130 μl of DMSO (4 mM) and 1 μl was added to an assay plate. These were then serially diluted 1:3 (50 μl to 100 μl DMSO) for a total of 8 points. Plates were prepared such that each kinase reaction is 30 μl in 1× kinase buffer (50 mM HEPES, pH 7.2, 5 mM MgCl2, 5 mM MnCl2, 0.01% NP-40, 0.2% BSA), 5% DMSO and 10 μM ATP. Substrate was 100 nM biotin-(E4Y)3 (Open Source Biotech, Inc.). C-kit kinase was at 0.1 ng per sample. After incubation of the kinase reaction for 1 hour at room temperature, 5 μl of donor beads (Streptavidin coated beads (Perkin Elmer Life Science) final concentration 1 μg/ml) in stop buffer (50 mM EDTA in 1× kinase buffer) was added, the sample was mixed and incubated for 30 minutes at room temperature before adding […] of acceptor beads (PY30 coated beads (Perkin Elmer Life Science) final concentration 1 μg/ml) in stop buffer. The samples were incubated for 60 minutes at room temperature and the signal per well was read on AlphaQuest reader. Phosphorylated substrate results in binding of the PY30 antibody and association of the donor and acceptor beads such that signal correlates with kinase activity. The signal vs. compound concentration was used to determine the IC50.
Compounds were also tested using a similar assay with a 10-fold higher ATP concentration. For these samples, compounds to be tested were dissolved in DMSO to a concentration of 30 mM. These were diluted 30 μl into 130 μl of DMSO (4 mM) and 1 μl was added to an assay plate. These were then serially diluted 1:3 (50 μl to 100 μl DMSO) for a total of 8 points. Plates were prepared such that each kinase reaction is 30 μl in 1× kinase buffer (25 mM HEPES, pH 7.5, 2 mM MgCl2, 2 mM MnCl2, 0.01% […], 1 mM DTT, and 0.001% BSA), 5% DMSO and 100 μM ATP. Substrate was 30 nM biotin-(E4Y)10 (Upstate Biotech, Cat#12-440). C-kit kinase was at 1 ng per sample. After incubation of the kinase reaction for 1 hour at room temperature, 5 μl of donor beads (Streptavidin coated beads (Perkin Elmer Life Science) final concentration 10 μg/ml) in stop buffer (25 mM HEPES pH 7.5, 100 mM EDTA, 0.3% BSA) was added, the sample was mixed and incubated for 30 minutes at room temperature before adding 5 μl of acceptor beads (PY30 coated beads (Perkin Elmer Life Science) final concentration 10 μg/ml) in stop buffer. The samples were incubated for 60 minutes at room temperature and the signal per well was read on AlphaQuest or Envision reader (Perkin Elmer Life Science). Phosphorylated substrate results in binding of the PY30 antibody and association of the donor and acceptor beads such that signal correlates with kinase activity. The signal vs. compound concentration was used to determine the IC50.
The c-kit enzyme used in the above assay was either obtained from Cell Signaling Technology (Cat. #7754) or was prepared as follows: A plasmid encoding kit (DNA and encoded protein sequences shown below) was engineered using common polymerase chain reaction (PCR) methods. Complementary DNA cloned from various human tissues were purchased from Invitrogen, and these were used as substrates in the PCR reactions. Specific custom synthetic oligonucleotide primers were designed to initiate the PCR product, and also to provide the appropriate restriction enzyme cleavage sites for ligation with the plasmids. […]

Chain of c-Kit kinase (P10721 26-976): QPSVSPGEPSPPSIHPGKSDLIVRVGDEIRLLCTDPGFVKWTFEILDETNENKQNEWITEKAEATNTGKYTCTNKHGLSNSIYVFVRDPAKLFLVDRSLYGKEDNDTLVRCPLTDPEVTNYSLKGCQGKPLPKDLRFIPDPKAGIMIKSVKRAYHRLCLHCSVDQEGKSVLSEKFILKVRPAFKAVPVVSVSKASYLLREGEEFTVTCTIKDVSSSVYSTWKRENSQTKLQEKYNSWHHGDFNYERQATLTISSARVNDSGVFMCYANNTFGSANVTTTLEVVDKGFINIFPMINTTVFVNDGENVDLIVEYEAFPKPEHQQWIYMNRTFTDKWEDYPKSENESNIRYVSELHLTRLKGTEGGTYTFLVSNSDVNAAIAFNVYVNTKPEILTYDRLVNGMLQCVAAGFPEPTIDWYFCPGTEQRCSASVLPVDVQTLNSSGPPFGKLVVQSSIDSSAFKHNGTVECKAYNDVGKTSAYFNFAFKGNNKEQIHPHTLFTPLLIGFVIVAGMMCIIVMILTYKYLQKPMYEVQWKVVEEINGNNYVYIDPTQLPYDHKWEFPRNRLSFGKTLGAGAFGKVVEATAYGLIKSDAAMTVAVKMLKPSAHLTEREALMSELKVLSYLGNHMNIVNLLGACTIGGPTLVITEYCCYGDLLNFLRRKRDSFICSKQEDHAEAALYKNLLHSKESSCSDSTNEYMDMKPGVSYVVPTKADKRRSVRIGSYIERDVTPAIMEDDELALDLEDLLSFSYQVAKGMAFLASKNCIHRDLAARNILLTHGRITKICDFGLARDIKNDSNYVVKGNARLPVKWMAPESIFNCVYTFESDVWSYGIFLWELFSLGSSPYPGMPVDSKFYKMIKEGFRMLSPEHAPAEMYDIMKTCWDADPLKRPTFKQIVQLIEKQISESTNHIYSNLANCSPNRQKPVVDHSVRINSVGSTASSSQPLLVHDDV

Compound | IC50
COc1cc(-c2[nH]c(C3(C)CCN(c4ncnc5[nH]c(C)cc45)CC3)nc2C)ccc1C [P-3105, 4-[4-[5-(3-methoxy-4-methyl-phenyl)-4-methyl-1H-imidazol-2-yl]-4-methyl-1-piperidyl]-6-methyl-7H-pyrrolo[2,3-d]pyrimidine] | 1 to 10 µM
COc1cc(-c2[nH]c(C3CCN(c4ncnc5[nH]c(-c6ccc(C#N)cc6)cc45)CC3)nc2C)ccc1C [P-3106, 4-[4-[4-[5-(3-methoxy-4-methyl-phenyl)-4-methyl-1H-imidazol-2-yl]-1-piperidyl]-7H-pyrrolo[2,3-d]pyrimidin-6-yl]benzonitrile] | 1 to 10 µM
Cc1nc(C2CCN(c3ncnc4[nH]c(-c5cnn(C(F)F)c5)cc34)CC2)[nH]c1-c1ccc(F)cc1 [P-3107, 6-[1-(difluoromethyl)pyrazol-4-yl]-4-[4-[5-(4-fluorophenyl)-4-methyl-1H-imidazol-2-yl]-1-piperidyl]-7H-pyrrolo[2,3-d]pyrimidine] | 0.0001 to 1 µM
COc1ccc(-c2[nH]c(C3CCN(c4ncnc5[nH]c(-c6cnn(C(F)F)c6)cc45)CC3)nc2C)cc1 [P-3108, 6-[1-(difluoromethyl)pyrazol-4-yl]-4-[4-[5-(4-methoxyphenyl)-4-methyl-1H-imidazol-2-yl]-1-piperidyl]-7H-pyrrolo[2,3-d]pyrimidine] | 0.0001 to 1 µM
Cc1nc(C2CCN(c3ncnc4[nH]c(-c5ccc(F)cc5)cc34)CC2)[nH]c1-c1ccc2c(c1)OC(F)(F)O2 [P-3109, 4-[4-[5-(2,2-difluoro-1,3-benzodioxol-5-yl)-4-methyl-1H-imidazol-2-yl]-1-piperidyl]-6-(4-fluorophenyl)-7H-pyrrolo[2,3-d]pyrimidine] | 1 to 10 µM
Cc1nc(C2CCN(c3ncnc4[nH]c(-c5ccc(C#N)cc5)cc34)CC2)[nH]c1-c1ccc2c(c1)OC(F)(F)O2 [P-3110, 4-[4-[4-[5-(2,2-difluoro-1,3-benzodioxol-5-yl)-4-methyl-1H-imidazol-2-yl]-1-piperidyl]-7H-pyrrolo[2,3-d]pyrimidin-6-yl]benzonitrile] | 10 to 300 µM
COc1cc(-c2cc3c(N4CCC(c5nc(C)c(-c6ccc7c(c6)OC(F)(F)O7)[nH]5)CC4)ncnc3[nH]2)ccn1 [P-3111, 4-[4-[5-(2,2-difluoro-1,3-benzodioxol-5-yl)-4-methyl-1H-imidazol-2-yl]-1-piperidyl]-6-(2-methoxy-4-pyridyl)-7H-pyrrolo[2,3-d]pyrimidine] | 10 to 300 µM
COc1ccc(-c2[nH]c(C3CCN(c4ncnc5[nH]c(-c6ccc(C#N)cc6)cc45)CC3)nc2C)cn1 [P-3112, 4-[4-[4-[5-(6-methoxy-3-pyridyl)-4-methyl-1H-imidazol-2-yl]-1-piperidyl]-7H-pyrrolo[2,3-d]pyrimidin-6-yl]benzonitrile] | 0.0001 to 1 µM
Cc1nc(C2CCN(c3ncnc4[nH]c(-c5ccc(C#N)cc5)cc34)CC2)[nH]c1-c1ccc(OC(F)F)cc1 [P-3113, 4-[4-[4-[5-[4-(difluoromethoxy)phenyl]-4-methyl-1H-imidazol-2-yl]-1-piperidyl]-7H-pyrrolo[2,3-d]pyrimidin-6-yl]benzonitrile] | 1 to 10 µM
COc1cccc(-c2[nH]c(C3CCN(c4ncnc5[nH]c(-c6cnn(C(F)F)c6)cc45)CC3)nc2C)c1 [P-3114, 6-[1-(difluoromethyl)pyrazol-4-yl]-4-[4-[5-(3-methoxyphenyl)-4-methyl-1H-imidazol-2-yl]-1-piperidyl]-7H-pyrrolo[2,3-d]pyrimidine] | 0.0001 to 1 µM
Cc1nc(C2CCN(c3ncnc4[nH]c(-c5cnn(C(F)F)c5)cc34)CC2)[nH]c1-c1ccc(OC(F)F)cc1 [P-3115, 4-[4-[5-[4-(difluoromethoxy)phenyl]-4-methyl-1H-imidazol-2-yl]-1-piperidyl]-6-[1-(difluoromethyl)pyrazol-4-yl]-7H-pyrrolo[2,3-d]pyrimidine] | 0.0001 to 1 µM
Cc1nc(C2CCN(c3ncnc4[nH]c(-c5cnn(C(F)F)c5)cc34)CC2)[nH]c1-c1ccc(OC(F)(F)F)cc1 [P-3116, 6-[1-(difluoromethyl)pyrazol-4-yl]-4-[4-[4-methyl-5-[4-(trifluoromethoxy)phenyl]-1H-imidazol-2-yl]-1-piperidyl]-7H-pyrrolo[2,3-d]pyrimidine] | 0.0001 to 1 µM
COc1cc(-c2cc3c(N4CCC(c5nc(C)c(-c6ccc(C)s6)[nH]5)CC4)ncnc3[nH]2)ccn1 [P-3117, 6-(2-methoxy-4-pyridyl)-4-[4-[4-methyl-5-(5-methyl-2-thienyl)-1H-imidazol-2-yl]-1-piperidyl]-7H-pyrrolo[2,3-d]pyrimidine] | 0.0001 to 1 µM
Cc1ccc(-c2[nH]c(C3CCN(c4ncnc5[nH]c(-c6ccc(F)cc6)cc45)CC3)nc2C)s1 [P-3118, 6-(4-fluorophenyl)-4-[4-[4-methyl-5-(5-methyl-2-thienyl)-1H-imidazol-2-yl]-1-piperidyl]-7H-pyrrolo[2,3-d]pyrimidine] | 0.0001 to 1 µM
Cc1nc(C2CCN(c3ncnc4[nH]c(-c5ccc(F)cc5)cc34)CC2)[nH]c1-c1ccc(Cl)s1 [P-3119, 4-[4-[5-(5-chloro-2-thienyl)-4-methyl-1H-imidazol-2-yl]-1-piperidyl]-6-(4-fluorophenyl)-7H-pyrrolo[2,3-d]pyrimidine] | 1 to 10 µM
Cc1cc2c(N3CCC(c4nc(C)c(-c5ccc6c(c5)OCO6)[nH]4)CC3)ncnc2[nH]1 [P-3120, 4-[4-[5-(1,3-benzodioxol-5-yl)-4-methyl-1H-imidazol-2-yl]-1-piperidyl]-6-methyl-7H-pyrrolo[2,3-d]pyrimidine] | 1 to 10 µM
Cc1cc2c(N3CCC(c4nc(C)c(-c5ccc6c(c5)OCCO6)[nH]4)CC3)ncnc2[nH]1 [P-3121, 4-[4-[5-(2,3-dihydro-1,4-benzodioxin-6-yl)-4-methyl-1H-imidazol-2-yl]-1-piperidyl]-6-methyl-7H-pyrrolo[2,3-d]pyrimidine] | 1 to 10 µM
Cc1nn(C)cc1-c1cc2c(N3CCC(c4nc(C)c(-c5ccc(OC(F)(F)F)cc5)[nH]4)CC3)ncnc2[nH]1 [P-3122, 6-(1,3-dimethylpyrazol-4-yl)-4-[4-[4-methyl-5-[4-(trifluoromethoxy)phenyl]-1H-imidazol-2-yl]-1-piperidyl]-7H-pyrrolo[2,3-d]pyrimidine] | 0.0001 to 1 µM
COc1cccc(-c2[nH]c(C3CCN(c4ncnc5[nH]c(-c6ccnc(OC)c6)cc45)CC3)nc2C(F)(F)F)c1 [P-3123, 4-[4-[5-(3-methoxyphenyl)-4-(trifluoromethyl)-1H-imidazol-2-yl]-1-piperidyl]-6-(2-methoxy-4-pyridyl)-7H-pyrrolo[2,3-d]pyrimidine] | 0.0001 to 1 µM
COc1cccc(-c2[nH]c(C3CCN(c4ncnc5[nH]c(-c6ccc(C#N)cc6)cc45)CC3)nc2C(F)(F)F)c1 [P-3124, 4-[4-[4-[5-(3-methoxyphenyl)-4-(trifluoromethyl)-1H-imidazol-2-yl]-1-piperidyl]-7H-pyrrolo[2,3-d]pyrimidin-6-yl]benzonitrile] | 0.0001 to 1 µM
CCOc1ccc(-c2[nH]c(C3CCN(c4ncnc5[nH]c(C)cc45)CC3)nc2C)cc1C [P-3125, 4-[4-[5-(4-ethoxy-3-methyl-phenyl)-4-methyl-1H-imidazol-2-yl]-1-piperidyl]-6-methyl-7H-pyrrolo[2,3-d]pyrimidine] | 1 to 10 µM
CCOc1cc(-c2[nH]c(C3CCN(c4ncnc5[nH]c(C)cc45)CC3)nc2C)ccc1C [P-3126, 4-[4-[5-(3-ethoxy-4-methyl-phenyl)-4-methyl-1H-imidazol-2-yl]-1-piperidyl]-6-methyl-7H-pyrrolo[2,3-d]pyrimidine] | 0.0001 to 1 µM
Cc1cc2c(N3CCC(c4nc(C)c(-c5ccc6c(c5)OC(F)(F)O6)[nH]4)CC3)ncnc2[nH]1 [P-3127, 4-[4-[5-(2,2-difluoro-1,3-benzodioxol-5-yl)-4-methyl-1H-imidazol-2-yl]-1-piperidyl]-6-methyl-7H-pyrrolo[2,3-d]pyrimidine] | 1 to 10 µM
